From patent publication US11739074B2, “Ras inhibitors” (Revolution Medicines, Inc., priority 2019, dated 2023)
pEC50, pIC50: −log10 of the molar value. Where two headings read alike, the source gives them in different places.

Legend:
AsPC-1 (K-Ras G12D) [1] = test: Potency assay: pERK in AsPC-1 cells; type: cell-based; conditions: Homo sapiens
NRAS WT = biological target: T1, NRAS WT (Homo sapiens, UniProt P01111+P62937); test: Ras-Raf disruption/FRET/MOA assay, NRAS WT; type: biochemical
T1 construct: His6
T1 sequence (P01111 whole entry): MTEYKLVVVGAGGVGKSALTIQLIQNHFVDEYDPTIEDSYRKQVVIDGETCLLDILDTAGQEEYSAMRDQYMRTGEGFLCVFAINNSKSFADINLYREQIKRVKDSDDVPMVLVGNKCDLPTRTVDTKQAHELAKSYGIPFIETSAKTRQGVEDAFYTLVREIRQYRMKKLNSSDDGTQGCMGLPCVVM
T1 sequence (P62937 whole entry): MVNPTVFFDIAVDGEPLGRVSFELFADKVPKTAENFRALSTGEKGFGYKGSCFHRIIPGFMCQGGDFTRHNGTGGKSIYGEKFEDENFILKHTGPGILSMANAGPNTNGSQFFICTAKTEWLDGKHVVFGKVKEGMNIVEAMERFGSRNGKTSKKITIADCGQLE
From the text: (§1) Disruption of B-Raf Ras-Binding Domain (BRAF^RBD) Interaction with K-Ras by Compounds of the Invention (Also Called a FRET Assay or an MOA Assay)
(§2) Note—The following protocol describes a procedure for monitoring disruption of K-Ras G12C (GMP-PNP) binding to BRAF^RBD by a compound of the invention. This protocol may also be executed substituting other Ras proteins or nucleotides, such as K-Ras G12D and K-Ras G13D.
(§3) The purpose of this biochemical assay was to measure the ability of test compounds to facilitate ternary complex formation between a nucleotide-loaded K-Ras isoform and Cyclophilin A; the resulting ternary complex disrupts binding to a BRAF^RBD construct, inhibiting K-Ras signaling through a RAF effector.
(§4) In assay buffer containing 25 mM HEPES pH 7.3, 0.002% Tween20, 0.1% BSA, 100 mM NaCl and 5 mM MgCl2, tagless Cyclophilin A, His6-K-Ras-GMPPNP, and GST-BRAF^RBD were combined in a 384-well assay plate at final concentrations of 25 μM, 12.5 nM, and 50 nM, respectively. Compound was present in plate wells as a 10-point 3-fold dilution series starting at a final concentration of 30 μM. After incubation at 25° C. for 3 hours, a mixture of anti-His Eu-W1024 and anti-GST allophycocyanin was then added to assay sample wells at final concentrations of 10 nM and 50 nM, respectively, and the reaction incubated for an additional 1.5 hours. […] Compounds that facilitate disruption of a K-Ras:RAF complex were identified as those eliciting a decrease in the TR-FRET ratio relative to DMSO control wells.

NRAS Q61R = biological target: T2, NRAS Q61R (Homo sapiens, UniProt P01111+P62937, Q61R); test: Ras-Raf disruption/FRET/MOA assay, NRAS Q61R; type: biochemical
T2 construct: His6
T2 sequence (P01111 whole entry Q61R): as the sequence (P01111 whole entry) above, with Q61R counted along it
T2 sequence (P62937 whole entry): as the sequence (P62937 whole entry) above
From the text: as §1, §2, §3, §4

AsPC-1 (K-Ras G12D) [2] = test: CellTiter-Glo cell viability assay, AsPC-1; type: cell-based; conditions: Homo sapiens, ASPC1, 120 h
Method in brief: (§5)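 Test compounds were dispensed directly onto seeded cells, and on day 5 plates were brought to room temperature for about 30 minutes before CellTiter-Glo luminescence was read. Signals were expressed as percent of the mean DMSO control and fitted with a four-parameter logistic model.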

NRAS Q61K = biological target: T3, NRAS Q61K (Homo sapiens, UniProt P01111+P62937, Q61K); test: Ras-Raf disruption/FRET/MOA assay, NRAS Q61K; type: biochemical
T3 construct: His6
T3 sequence (P01111 whole entry Q61K): as the sequence (P01111 whole entry) above, with Q61K counted along it
T3 sequence (P62937 whole entry): as the sequence (P62937 whole entry) above
From the text: as §1, §2, §3, §4

NRAS G12C = biological target: T4, NRAS G12C (Homo sapiens, UniProt P01111+P62937, G12C); test: Ras-Raf disruption/FRET/MOA assay, NRAS G12C; type: biochemical
T4 construct: His6
T4 sequence (P01111 whole entry G12C): as the sequence (P01111 whole entry) above, with G12C counted along it
T4 sequence (P62937 whole entry): as the sequence (P62937 whole entry) above
Method in brief: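 Disruption of Ras:RAF binding was read as a drop in TR-FRET ratio versus DMSO controls. The buffer was 25 mM HEPES pH 7.3, 0.002% Tween20, 0.1% BSA, 100 mM NaCl and 5 mM MgCl2. Compounds were tested as a 10-point 3-fold dilution series from 30 μM. Detection used 10 nM anti-His Eu-W1024 and 50 nM anti-GST allophycocyanin.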

NCI-H358 (K-Ras G12C) = test: CellTiter-Glo cell viability assay, H358; type: cell-based; conditions: Homo sapiens, NCI-H358, 120 h
Method in brief: as §5

KRAS Q61H = KRAS Q61H (Homo sapiens, UniProt P01116+P62937, Q61H); test: Ras-Raf disruption/FRET/MOA assay, KRAS Q61H; type: biochemical; conditions: KRAS Q61H; read-out: KRAS Q61H FRET data IC50
Chain of KRAS Q61H (P01116 1-169 isoform P01116-2 Q61H limits assumed): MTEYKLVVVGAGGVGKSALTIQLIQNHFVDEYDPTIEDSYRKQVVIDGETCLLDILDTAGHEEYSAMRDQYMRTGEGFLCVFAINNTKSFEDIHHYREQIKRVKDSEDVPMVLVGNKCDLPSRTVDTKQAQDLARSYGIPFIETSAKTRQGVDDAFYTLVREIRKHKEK
Chain of KRAS Q61H (P62937 whole entry): as the sequence (P62937 whole entry) above
From the text: as §1, §2, §3, §4

KRAS WT = KRAS WT (Homo sapiens, UniProt P01116+P62937); test: Ras-Raf disruption/FRET/MOA assay, KRAS WT; type: biochemical; conditions: disruption of BRAF RBD binding, with Cyclophilin A; read-out: KRAS WT FRET IC50
Chain of KRAS WT (P01116 1-169 isoform P01116-2 limits assumed): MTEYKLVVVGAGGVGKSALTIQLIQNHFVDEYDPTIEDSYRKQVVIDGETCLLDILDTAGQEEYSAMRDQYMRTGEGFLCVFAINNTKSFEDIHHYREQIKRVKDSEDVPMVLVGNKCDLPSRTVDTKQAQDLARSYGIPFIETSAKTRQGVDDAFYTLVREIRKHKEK
Chain of KRAS WT (P62937 whole entry): as the sequence (P62937 whole entry) above
Method in brief: (§6)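 His6-KRAS-GMPPNP (12.5 nM) was combined with tagless Cyclophilin A (25 μM) and GST-BRAF^RBD (50 nM) in pH 7.3 HEPES buffer with NaCl, MgCl2, Tween20 and BSA. Compound was tested as a 10-point 3-fold series from 30 μM final, 3 h at 25° C. Disruption was read as a drop in TR-FRET ratio versus DMSO.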

KRAS G12S = KRAS G12S (Homo sapiens, UniProt P01116+P62937, G12S); test: Ras-Raf disruption/FRET/MOA assay, KRAS G12S; type: biochemical; conditions: disruption of BRAF RBD binding, with Cyclophilin A; read-out: KRAS G12S FRET IC50
Chain of KRAS G12S (P01116 1-169 isoform P01116-2 G12S limits assumed): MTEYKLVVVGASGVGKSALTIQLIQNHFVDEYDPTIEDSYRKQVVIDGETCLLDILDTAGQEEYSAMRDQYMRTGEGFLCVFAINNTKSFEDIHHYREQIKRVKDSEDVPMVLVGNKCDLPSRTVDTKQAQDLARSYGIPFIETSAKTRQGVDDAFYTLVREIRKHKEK
Chain of KRAS G12S (P62937 whole entry): as the sequence (P62937 whole entry) above
Method in brief: as §6

KRAS G12D = KRAS G12D (Homo sapiens, UniProt P01116+P62937, G12D); test: Ras-Raf disruption/FRET/MOA assay, KRAS G12D; type: biochemical; conditions: disruption of BRAF RBD binding, with Cyclophilin A; read-out: KRAS G12D FRET IC50
Chain of KRAS G12D (P01116 1-169 isoform P01116-2 G12D limits assumed): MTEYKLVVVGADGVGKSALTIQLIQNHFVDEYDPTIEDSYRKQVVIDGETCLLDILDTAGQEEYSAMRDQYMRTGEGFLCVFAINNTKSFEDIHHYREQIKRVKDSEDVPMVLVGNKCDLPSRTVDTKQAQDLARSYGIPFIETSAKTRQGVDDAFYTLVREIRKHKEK
Chain of KRAS G12D (P62937 whole entry): as the sequence (P62937 whole entry) above
Method in brief: as §6

KRAS G12C = KRAS G12C (Homo sapiens, UniProt P01116+P62937, G12C); test: Ras-Raf disruption/FRET/MOA assay, KRAS G12C; type: biochemical; conditions: disruption of BRAF RBD binding, with Cyclophilin A; read-out: KRAS G12C FRET IC50
Chain of KRAS G12C (P01116 1-169 isoform P01116-2 G12C limits assumed): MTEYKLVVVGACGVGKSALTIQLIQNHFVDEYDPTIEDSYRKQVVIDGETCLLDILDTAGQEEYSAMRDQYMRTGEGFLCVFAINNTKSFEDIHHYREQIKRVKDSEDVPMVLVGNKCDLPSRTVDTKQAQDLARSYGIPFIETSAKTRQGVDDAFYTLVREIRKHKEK
Chain of KRAS G12C (P62937 whole entry): as the sequence (P62937 whole entry) above
Method in brief: as §6

KRAS G13D = KRAS G13D (Homo sapiens, UniProt P01116+P62937, G13D); test: Ras-Raf disruption/FRET/MOA assay, KRAS G13D; type: biochemical; conditions: disruption of BRAF RBD binding, with Cyclophilin A; read-out: KRAS G13D FRET IC50
Chain of KRAS G13D (P01116 1-169 isoform P01116-2 G13D limits assumed): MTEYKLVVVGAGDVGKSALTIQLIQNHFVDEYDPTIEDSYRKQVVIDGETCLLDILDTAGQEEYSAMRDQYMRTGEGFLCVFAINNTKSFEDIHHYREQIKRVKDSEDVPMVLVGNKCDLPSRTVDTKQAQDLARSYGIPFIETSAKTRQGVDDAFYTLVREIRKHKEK
Chain of KRAS G13D (P62937 whole entry): as the sequence (P62937 whole entry) above
Method in brief: as §6

KRAS G12V = KRAS G12V (Homo sapiens, UniProt P01116+P62937, G12V); test: Ras-Raf disruption/FRET/MOA assay, KRAS G12V; type: biochemical; conditions: disruption of BRAF RBD binding, with Cyclophilin A; read-out: KRAS G12V FRET IC50
Chain of KRAS G12V (P01116 1-169 isoform P01116-2 G12V limits assumed): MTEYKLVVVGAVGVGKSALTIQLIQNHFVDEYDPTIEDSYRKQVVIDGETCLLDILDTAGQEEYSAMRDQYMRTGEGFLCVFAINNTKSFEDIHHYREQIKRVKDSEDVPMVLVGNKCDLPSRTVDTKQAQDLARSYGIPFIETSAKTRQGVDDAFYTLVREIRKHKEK
Chain of KRAS G12V (P62937 whole entry): as the sequence (P62937 whole entry) above
Method in brief: as §6

KRAS G13C = KRAS G13C (Homo sapiens, UniProt P01116+P62937, G13C); test: Ras-Raf disruption/FRET/MOA assay, KRAS G13C; type: biochemical; conditions: disruption of BRAF RBD binding, with Cyclophilin A; read-out: KRAS G13C FRET IC50
Chain of KRAS G13C (P01116 1-169 isoform P01116-2 G13C limits assumed): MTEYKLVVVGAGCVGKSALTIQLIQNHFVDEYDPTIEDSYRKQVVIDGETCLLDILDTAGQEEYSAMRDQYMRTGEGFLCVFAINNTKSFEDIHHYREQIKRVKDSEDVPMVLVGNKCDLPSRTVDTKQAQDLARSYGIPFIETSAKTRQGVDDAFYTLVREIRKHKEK
Chain of KRAS G13C (P62937 whole entry): as the sequence (P62937 whole entry) above
Method in brief: as §6

[3] = ASPC1, AsPC-1 cells, K-Ras G12D, read-out: pERK EC50 (AsPC-1 KRAS G12D)
[4] = AsPC-1, K-Ras G12D, 5-day treatment, read-out: AsPC-1 Cell Viability IC50
[5] = ASPC1, read-out: pERK EC50 (AsPC-1 KRAS G12D)
[6] = NRAS WT, read-out: NRAS WT FRET data IC50
[7] = NRAS Q61R, read-out: NRAS Q61R FRET data IC50
[8] = NRAS Q61K, read-out: NRAS Q61K FRET data IC50
[9] = NRAS G12C, read-out: NRAS G12C FRET data IC50

SMILES	pEC50 (AsPC-1 (K-Ras G12D) [1]; [3])	pIC50 (NRAS WT)	pIC50 (AsPC-1 (K-Ras G12D) [2]; [4])	pEC50 (AsPC-1 (K-Ras G12D) [1]; [5])	pIC50 (KRAS Q61H)	pIC50 (KRAS WT)	pIC50 (KRAS G12S)	pIC50 (NRAS WT; [6])	pIC50 (KRAS G12D)	pIC50 (NRAS Q61R; [7])	pIC50 (KRAS G12C)	pIC50 (KRAS G13D)	pIC50 (KRAS G12V)	pIC50 (KRAS G13C)	pIC50 (NRAS Q61K; [8])	pIC50 (NRAS G12C; [9])	other results
CCn1c(-c2cccnc2[C@H](C)OC)c2c3cc(ccc31)-c1cc(O)cc(c1)C[C@H](NC(=O)C(C(C)C)N(C)C(=O)[C@@]1(C)CCCN1C(=O)[C@H]1CN1)C(=O)N1CCC[C@H](N1)C(=O)OCC(C)(C)C2 (stereo partly drawn) [Compound 240]	> 5.30	5.00 to 6.00	5.00 to 6.00														pIC50 (NRAS Q61R): 5.00 to 6.00; pIC50 (NRAS Q61K): < 5.00; pIC50 (NRAS G12C; NRAS G12C FRET data IC50, NRAS G12C): 6.00 to 7.00
CCn1c(-c2cccnc2[C@H](C)OC)c2c3cc(ccc31)-c1cc(O)cc(c1)C[C@H](NC(=O)[C@H](C(C)C)N(C)C(=O)CN(C)C(=O)[C@@H]1CN1CCCOC(C)=O)C(=O)N1CCC[C@H](N1)C(=O)OCC(C)(C)C2 (stereo partly drawn) [Compound 267]		7.00 to 8.00		> 5.30													pIC50 (AsPC-1 (K-Ras G12D) [2]; read-out: AsPC-1 Cell Viability IC50, AsPC-1, K-Ras G12D, 5-day treatment): 6.00 to 7.00; pIC50 (NCI-H358 (K-Ras G12C); read-out: H358 Cell Viability IC50, NCI-H358, K-Ras G12C, 5-day treatment): > 8.00
CCn1c(-c2cccnc2[C@H](C)OC)c2c3cc(ccc31)-c1cc(O)cc(c1)C[C@H](NC(=O)[C@H](C(C)C)N1CCCC3(CN(C(=O)[C@@H]4CN4)C3)C1=O)C(=O)N1CCC[C@H](N1)C(=O)OCC(C)(C)C2 [Compound 306]	> 5.30		5.00 to 6.00		7.00 to 8.00	7.00 to 8.00	7.00 to 8.00	7.00 to 8.00	6.00 to 7.00	6.00 to 7.00	> 8.00	7.00 to 8.00	7.00 to 8.00	7.00 to 8.00	6.00 to 7.00	> 8.00	
CCn1c(-c2cccnc2[C@H](C)OC)c2c3cc(ccc31)-c1cccc(c1)C[C@H](NC(=O)[C@H](C1CCCC1)N1CC[C@]3(CCN(C(=O)[C@@H]4N[C@@H]4C4CC4)C3)C1=O)C(=O)N1CCC[C@H](N1)C(=O)OCC(C)(C)C2 [Compound 313]	> 5.30		7.00 to 8.00		6.00 to 7.00												pIC50 (NCI-H358 (K-Ras G12C); NCI-H358, K-Ras G12C, 5-day treatment, read-out: H358 Cell Viability IC50): 6.00 to 7.00
CCn1c(-c2cnccc2COC)c2c3cc(ccc31)-c1cc(O)cc(c1)C[C@H](NC(=O)[C@H](C(C)C)N(C)C(=O)CN(C)C(=O)[C@H]1CN1S(C)(=O)=O)C(=O)N1CCC[C@H](N1)C(=O)OCC(C)(C)C2 (stereo partly drawn) [Example 36, (2R)—N-(2-(((2S)-1-(((6^3S,4S)-1^1-ethyl-2^5-hydroxy-1^2-(4-(methoxymethyl)pyridin-3-yl)-10,10-dimethyl-5,7-dioxo-6^1,6^2,6^3,6^4,6^5,6^6-hexahydro-1^1H-8-oxa-1(5,3)-indola-6(1,3)-pyridazina-2(1,3)-benzenacycloundecaphane-4-yl)amino)-3-methyl-1-oxobutan-2-yl)(methyl)amino)-2-oxoethyl)-N-methyl-1-(methylsulfonyl)aziridine-2-carboxamide]				> 5.30	7.00 to 8.00	7.00 to 8.00	7.00 to 8.00	6.00 to 7.00	6.00 to 7.00	6.00 to 7.00	7.00 to 8.00	6.00 to 7.00	7.00 to 8.00	7.00 to 8.00	6.00 to 7.00	7.00 to 8.00	pIC50 (AsPC-1 (K-Ras G12D) [2]; read-out: AsPC-1 Cell Viability IC50): < 5.00
